# According to ChEMBL document CHEMBL1201862, “PubChem BioAssay data set” (2004):
# Active and inactive are the calls of the source.
# Experiments:
# [1] = Counterscreen for activators of the function of SWI/SNF related, matrix associated, actin dependent regulator of chromatin, subfamily a, member 2 (SMARCA2, BRM): Luminescence-based cell-based high throughput dose response assay to identify non-selective compounds using the VP16 reporter assay.; assay type: functional
# [2] = molecular target: SWI/SNF-related matrix-associated actin-dependent regulator of chromatin subfamily A member 2 (Homo sapiens, UniProt P51531); test: Luminescence-based cell-based high throughput dose response assay to identify activators of the function of SWI/SNF related, matrix associated, actin dependent regulator of chromatin, subfamily a, member 2 (SMARCA2, BRM).; assay type: functional
# SWI/SNF-related matrix-associated actin-dependent regulator of chromatin subfamily A member 2, sequence (P51531 whole entry, the tested form may be a part): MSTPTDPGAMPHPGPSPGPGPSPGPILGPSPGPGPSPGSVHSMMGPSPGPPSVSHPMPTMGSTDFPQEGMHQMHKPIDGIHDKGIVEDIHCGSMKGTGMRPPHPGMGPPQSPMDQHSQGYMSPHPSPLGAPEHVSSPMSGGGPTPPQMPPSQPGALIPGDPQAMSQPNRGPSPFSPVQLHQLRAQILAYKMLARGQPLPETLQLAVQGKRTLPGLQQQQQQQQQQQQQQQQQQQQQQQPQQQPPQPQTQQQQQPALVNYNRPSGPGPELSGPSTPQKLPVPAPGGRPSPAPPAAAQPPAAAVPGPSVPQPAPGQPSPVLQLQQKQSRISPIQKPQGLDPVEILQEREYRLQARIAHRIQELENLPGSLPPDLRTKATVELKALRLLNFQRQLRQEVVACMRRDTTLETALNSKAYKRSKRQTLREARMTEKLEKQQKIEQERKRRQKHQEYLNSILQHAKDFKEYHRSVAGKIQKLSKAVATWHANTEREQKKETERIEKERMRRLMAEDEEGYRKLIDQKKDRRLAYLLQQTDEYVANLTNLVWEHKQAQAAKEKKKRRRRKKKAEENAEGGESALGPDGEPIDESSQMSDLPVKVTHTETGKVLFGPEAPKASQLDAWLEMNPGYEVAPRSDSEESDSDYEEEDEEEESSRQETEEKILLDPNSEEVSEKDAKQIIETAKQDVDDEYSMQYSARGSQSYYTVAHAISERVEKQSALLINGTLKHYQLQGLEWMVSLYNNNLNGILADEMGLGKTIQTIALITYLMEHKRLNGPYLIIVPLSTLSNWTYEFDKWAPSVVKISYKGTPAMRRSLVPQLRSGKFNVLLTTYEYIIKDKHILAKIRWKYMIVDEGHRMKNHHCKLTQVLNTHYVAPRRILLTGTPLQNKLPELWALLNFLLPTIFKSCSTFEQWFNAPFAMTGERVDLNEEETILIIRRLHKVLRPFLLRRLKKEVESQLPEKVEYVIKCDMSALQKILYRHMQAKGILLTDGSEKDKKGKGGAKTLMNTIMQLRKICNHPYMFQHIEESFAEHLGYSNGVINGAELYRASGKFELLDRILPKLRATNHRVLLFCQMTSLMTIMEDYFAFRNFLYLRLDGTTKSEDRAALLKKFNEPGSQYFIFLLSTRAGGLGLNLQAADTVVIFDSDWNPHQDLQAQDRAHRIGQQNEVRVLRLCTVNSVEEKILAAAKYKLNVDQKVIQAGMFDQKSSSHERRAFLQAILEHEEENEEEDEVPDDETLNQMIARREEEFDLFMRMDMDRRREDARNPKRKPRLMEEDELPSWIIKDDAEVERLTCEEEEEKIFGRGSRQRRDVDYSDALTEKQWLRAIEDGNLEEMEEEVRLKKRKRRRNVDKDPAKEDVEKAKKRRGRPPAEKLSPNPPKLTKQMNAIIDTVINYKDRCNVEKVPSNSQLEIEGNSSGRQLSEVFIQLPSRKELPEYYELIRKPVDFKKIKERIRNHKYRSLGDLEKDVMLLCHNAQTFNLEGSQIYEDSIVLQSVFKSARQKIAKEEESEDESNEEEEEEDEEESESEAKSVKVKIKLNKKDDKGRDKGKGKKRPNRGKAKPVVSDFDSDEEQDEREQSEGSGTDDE
# [3] = molecular target: Photoreceptor-specific nuclear receptor (Homo sapiens, UniProt Q9Y5X4); assay type: functional, cell-based;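 further: CHO-S cells with Gal4-NCOR and VP16-NR2E3 two-hybrid luciferase reporter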
# Photoreceptor-specific nuclear receptor, sequence (Q9Y5X4 whole entry, the tested form may be a part): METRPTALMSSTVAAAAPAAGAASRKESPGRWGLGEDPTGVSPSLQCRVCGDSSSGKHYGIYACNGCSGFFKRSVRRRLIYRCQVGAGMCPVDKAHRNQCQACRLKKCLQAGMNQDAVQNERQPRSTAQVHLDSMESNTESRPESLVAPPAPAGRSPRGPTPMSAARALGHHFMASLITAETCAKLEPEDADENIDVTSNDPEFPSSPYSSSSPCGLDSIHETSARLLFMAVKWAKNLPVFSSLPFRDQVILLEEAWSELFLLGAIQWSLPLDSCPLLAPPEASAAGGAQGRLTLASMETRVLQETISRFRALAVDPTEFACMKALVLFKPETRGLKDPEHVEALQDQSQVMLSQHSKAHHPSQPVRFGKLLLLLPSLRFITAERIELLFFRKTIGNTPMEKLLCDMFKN
# [4] = cytotoxicity in HEK-293T cells, dose response, cytotoxicity control for TCR NF-kB inhibitor project, luminescence, T-cell screen hits (AID 489026); assay type: functional, cell-based;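 further: cells exposed to compound about 14 hours before the viability readout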
# [5] = growth suppression of beta-catenin-knockout colon cells, dose response, cell-based, HCT116, human colon tumor (AID 1045); assay type: functional;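 further: HCT116 colon tumor cells with beta catenin knocked out; cells exposed to compound for 60 hours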
# [6] = growth suppression of PTEN-null colon cells, dose response, cell-based, HCT116 PTEN knockout (AID 1047); assay type: functional;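 further: HCT116 colon tumor cells with PTEN knocked out; cells exposed to compound for 60 hours before readout; potency for loss of cell viability measured by luminescence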
# [7] = HEK293T cell cytotoxicity, dose response, cytotoxicity control for HIV Vif inhibitor project, cherry-picks (AID 652208); assay type: functional, cell-based
# [8] = molecular target: T1, Heat shock factor protein 1 (Mus musculus, UniProt P38532); test: HSF1 potentiators in luciferase reporter cells, confirmation, cell-based, NIH3T3, luminescence, dose retest (AID 435004); assay type: functional;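 further: stress induced by proteasome inhibitor MG132 added 30 min after compound; luciferase reporter driven by HSF1 response element in NIH3T3 cells; actives raise luminescence as potentiators of the MG132 stress response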
# T1 sequence (P38532 whole entry): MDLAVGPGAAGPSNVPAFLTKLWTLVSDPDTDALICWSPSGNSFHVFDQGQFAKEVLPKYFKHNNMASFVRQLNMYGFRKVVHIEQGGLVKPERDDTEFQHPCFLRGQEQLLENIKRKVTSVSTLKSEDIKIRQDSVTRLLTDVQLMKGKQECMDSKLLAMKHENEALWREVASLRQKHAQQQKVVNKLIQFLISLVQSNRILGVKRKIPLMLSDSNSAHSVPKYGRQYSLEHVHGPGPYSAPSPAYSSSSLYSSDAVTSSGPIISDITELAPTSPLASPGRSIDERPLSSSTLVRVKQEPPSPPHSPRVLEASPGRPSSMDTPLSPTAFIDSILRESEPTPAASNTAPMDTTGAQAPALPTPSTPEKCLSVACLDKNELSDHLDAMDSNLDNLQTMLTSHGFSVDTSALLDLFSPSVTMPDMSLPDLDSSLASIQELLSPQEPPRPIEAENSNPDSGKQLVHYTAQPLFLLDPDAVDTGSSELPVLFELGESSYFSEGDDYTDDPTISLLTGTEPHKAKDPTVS
# fMet-Leu-Phe receptor = fMet-Leu-Phe receptor (Homo sapiens, UniProt P21462); test: FPR ligands, dose response (AID 519); assay type: functional
# fMet-Leu-Phe receptor, sequence (P21462 whole entry): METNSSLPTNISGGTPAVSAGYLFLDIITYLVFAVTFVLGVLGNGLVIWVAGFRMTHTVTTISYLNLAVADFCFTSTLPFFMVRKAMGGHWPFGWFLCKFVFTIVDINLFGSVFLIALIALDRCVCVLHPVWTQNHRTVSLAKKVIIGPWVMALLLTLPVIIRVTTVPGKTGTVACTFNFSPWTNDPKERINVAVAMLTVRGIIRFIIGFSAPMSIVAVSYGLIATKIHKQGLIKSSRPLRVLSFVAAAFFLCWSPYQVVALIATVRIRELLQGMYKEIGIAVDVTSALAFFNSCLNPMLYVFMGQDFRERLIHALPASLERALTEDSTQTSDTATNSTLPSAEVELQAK
# [9] = EDANS-DABCYL fluorescence interference, concentration series, dose response, artefact control for kallikrein-7 zymogen activator project, biochemical, fluorescence intensity, triplicate (AID 720493)
# Kallikrein-7 = Kallikrein-7 (Homo sapiens, UniProt P49862); test: Fluorescence Intensity-based biochemical primary high throughput dose response assay to identify activators of kallikrein-7 (K7) zymogen.
# Kallikrein-7, sequence (P49862 whole entry): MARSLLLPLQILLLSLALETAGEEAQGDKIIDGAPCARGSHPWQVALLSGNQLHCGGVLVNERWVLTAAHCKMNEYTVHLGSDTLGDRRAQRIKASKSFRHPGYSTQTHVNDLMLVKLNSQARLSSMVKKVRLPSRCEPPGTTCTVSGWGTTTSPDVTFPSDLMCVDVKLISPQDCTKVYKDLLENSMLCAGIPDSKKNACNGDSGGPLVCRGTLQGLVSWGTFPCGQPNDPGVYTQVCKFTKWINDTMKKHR
# Cytochrome P450 3A4 = Cytochrome P450 3A4 (Homo sapiens, UniProt P08684);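 further: CYP3A4 tested as one member of a cytochrome P450 panel screen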
# Cytochrome P450 3A4, sequence (P08684 whole entry): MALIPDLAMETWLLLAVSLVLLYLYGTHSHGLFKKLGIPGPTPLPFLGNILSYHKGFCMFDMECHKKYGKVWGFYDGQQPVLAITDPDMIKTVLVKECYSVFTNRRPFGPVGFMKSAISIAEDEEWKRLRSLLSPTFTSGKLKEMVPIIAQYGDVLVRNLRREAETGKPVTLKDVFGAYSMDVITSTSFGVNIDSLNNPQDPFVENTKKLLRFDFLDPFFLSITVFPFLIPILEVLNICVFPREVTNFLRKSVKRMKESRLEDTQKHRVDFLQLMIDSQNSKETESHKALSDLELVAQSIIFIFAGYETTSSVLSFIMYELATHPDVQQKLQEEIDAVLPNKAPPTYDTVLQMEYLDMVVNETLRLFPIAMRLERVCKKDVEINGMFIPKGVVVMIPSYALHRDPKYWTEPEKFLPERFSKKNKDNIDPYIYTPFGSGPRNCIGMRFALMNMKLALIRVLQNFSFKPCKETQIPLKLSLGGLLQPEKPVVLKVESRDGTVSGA
# [10] = molecular target: NAD-dependent protein deacylase sirtuin-5, mitochondrial (Homo sapiens, UniProt Q9NXA8); test: SIRT5 desuccinylase inhibitors, dose response, biochemical, fluorescence imaging, cherry-pick, set 5 (AID 720591);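 further: desuccinylation of succinyl peptide AMC substrate read as fluorescence after trypsin release; potency of inhibitors that lower fluorescence and may act on trypsin instead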
# NAD-dependent protein deacylase sirtuin-5, mitochondrial, sequence (Q9NXA8 whole entry): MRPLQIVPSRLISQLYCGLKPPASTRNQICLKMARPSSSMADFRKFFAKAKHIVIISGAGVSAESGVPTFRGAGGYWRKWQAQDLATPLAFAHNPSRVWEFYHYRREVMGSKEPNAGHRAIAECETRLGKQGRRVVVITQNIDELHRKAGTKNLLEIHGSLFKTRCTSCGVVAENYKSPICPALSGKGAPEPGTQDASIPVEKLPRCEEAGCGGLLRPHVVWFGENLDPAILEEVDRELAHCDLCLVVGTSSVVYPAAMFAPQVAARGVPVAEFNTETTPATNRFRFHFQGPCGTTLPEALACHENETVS
# [11] = molecular target: T2, Trace amine-associated receptor 1 (Homo sapiens, UniProt Q96RJ0); test: Counterscreen for agonists of the human trace amine associated receptor 1 (hTAAR1): Fluorescence-based cell-based high throughput dose response assay to identify hTAAR1 agonist that also desensitize TAAR1 receptor response.; assay type: functional
# T2 sequence (Q96RJ0 whole entry): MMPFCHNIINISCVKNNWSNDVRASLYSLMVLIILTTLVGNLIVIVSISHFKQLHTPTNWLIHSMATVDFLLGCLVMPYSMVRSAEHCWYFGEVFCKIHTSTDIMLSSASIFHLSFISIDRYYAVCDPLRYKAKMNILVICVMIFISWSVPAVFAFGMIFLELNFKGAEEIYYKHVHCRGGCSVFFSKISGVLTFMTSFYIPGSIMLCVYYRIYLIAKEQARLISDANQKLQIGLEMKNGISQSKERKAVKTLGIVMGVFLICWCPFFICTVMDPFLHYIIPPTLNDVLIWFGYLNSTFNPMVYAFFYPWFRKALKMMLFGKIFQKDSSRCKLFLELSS
# cells [12] = assay type: functional, cell-based
# [13] = molecular target: T2, Trace amine-associated receptor 1; test: Fluorescence-based cell-based high throughput dose response assay to identify agonists of the human trace amine associated receptor 1 (TAAR1).; assay type: functional
# [14] = molecular target: T3, Short transient receptor potential channel 4 (Mus musculus, UniProt Q9QUQ5); test: mouse TRPC4 channel activators, dose response, cell-based, HEK293 TRPC4/mu-opioid, Fluo-4 calcium (AID 434937); assay type: functional
# T3 sequence (Q9QUQ5 whole entry): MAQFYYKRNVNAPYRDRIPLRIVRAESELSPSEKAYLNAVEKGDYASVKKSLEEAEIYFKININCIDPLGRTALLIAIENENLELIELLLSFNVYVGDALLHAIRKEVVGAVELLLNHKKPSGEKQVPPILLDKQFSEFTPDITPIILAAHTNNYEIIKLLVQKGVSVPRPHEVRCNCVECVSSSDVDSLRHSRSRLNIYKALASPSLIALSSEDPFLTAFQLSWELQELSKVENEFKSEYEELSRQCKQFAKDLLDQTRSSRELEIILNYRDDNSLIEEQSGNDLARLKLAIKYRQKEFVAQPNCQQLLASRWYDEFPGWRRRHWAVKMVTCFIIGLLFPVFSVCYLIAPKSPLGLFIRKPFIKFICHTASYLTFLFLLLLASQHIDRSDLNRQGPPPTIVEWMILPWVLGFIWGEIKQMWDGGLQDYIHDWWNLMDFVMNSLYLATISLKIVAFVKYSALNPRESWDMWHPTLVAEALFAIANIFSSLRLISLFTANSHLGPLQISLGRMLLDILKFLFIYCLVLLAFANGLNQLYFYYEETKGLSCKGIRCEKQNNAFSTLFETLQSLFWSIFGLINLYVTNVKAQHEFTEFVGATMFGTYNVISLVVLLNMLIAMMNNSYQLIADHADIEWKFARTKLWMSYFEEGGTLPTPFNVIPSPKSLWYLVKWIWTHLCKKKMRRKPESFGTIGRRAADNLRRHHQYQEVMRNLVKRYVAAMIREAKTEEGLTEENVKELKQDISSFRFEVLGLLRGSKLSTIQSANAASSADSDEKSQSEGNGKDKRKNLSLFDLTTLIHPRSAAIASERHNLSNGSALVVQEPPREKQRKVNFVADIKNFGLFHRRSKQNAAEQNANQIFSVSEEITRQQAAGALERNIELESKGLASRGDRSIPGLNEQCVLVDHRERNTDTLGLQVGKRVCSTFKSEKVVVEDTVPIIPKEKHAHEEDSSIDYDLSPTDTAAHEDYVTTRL
# cells [15] = assay type: functional, cell-based; remark: listed apart in the source
# [16] = molecular target: T3, Short transient receptor potential channel 4; test: mouse TRPC4 channel inhibitors, dose response, cell-based, HEK293 TRPC4/mu-opioid, Fluo-4 calcium (AID 434942); assay type: functional;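 further: potency of inhibitors blocking the TRPC4 calcium response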
# [17] = ADAM10 protease inhibitors, dose response, selectivity assay for ADAM17 exosite inhibitor project, biochemical, FRET peptide substrate, recombinant human ADAM10 (AID 743259);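 further: ADAM10 enzyme cleaving a FRET peptide substrate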
# [18] = molecular target: Disintegrin and metalloproteinase domain-containing protein 17 (Homo sapiens, UniProt P78536); test: exosite inhibitors of ADAM17, dose response, biochemical (AID 743260)
# Disintegrin and metalloproteinase domain-containing protein 17, sequence (P78536 whole entry, the tested form may be a part): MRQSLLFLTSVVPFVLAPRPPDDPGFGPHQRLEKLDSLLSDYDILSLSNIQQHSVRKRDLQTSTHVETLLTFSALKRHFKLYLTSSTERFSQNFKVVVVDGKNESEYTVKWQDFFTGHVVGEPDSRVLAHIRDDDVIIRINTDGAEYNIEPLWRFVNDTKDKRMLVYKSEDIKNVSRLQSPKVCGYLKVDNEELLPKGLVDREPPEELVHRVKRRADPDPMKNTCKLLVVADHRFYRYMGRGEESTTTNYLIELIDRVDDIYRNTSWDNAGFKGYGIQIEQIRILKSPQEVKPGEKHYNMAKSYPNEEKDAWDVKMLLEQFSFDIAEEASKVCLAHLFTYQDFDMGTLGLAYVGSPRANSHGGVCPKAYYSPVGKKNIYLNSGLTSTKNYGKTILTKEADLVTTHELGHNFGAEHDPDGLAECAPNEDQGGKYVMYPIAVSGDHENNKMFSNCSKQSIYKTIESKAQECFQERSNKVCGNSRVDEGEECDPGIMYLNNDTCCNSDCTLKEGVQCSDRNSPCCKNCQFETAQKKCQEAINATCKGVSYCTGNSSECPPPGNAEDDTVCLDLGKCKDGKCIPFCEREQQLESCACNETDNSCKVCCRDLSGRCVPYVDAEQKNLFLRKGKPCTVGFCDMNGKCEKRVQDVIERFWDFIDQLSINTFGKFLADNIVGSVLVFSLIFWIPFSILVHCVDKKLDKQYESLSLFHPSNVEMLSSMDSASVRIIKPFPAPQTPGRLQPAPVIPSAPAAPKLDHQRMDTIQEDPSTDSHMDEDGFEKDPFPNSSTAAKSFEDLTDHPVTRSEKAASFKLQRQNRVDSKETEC
# [19] = molecular target: T2, Trace amine-associated receptor 1; test: Counterscreen for antagonists of the human trace amine associated receptor 1 (hTAAR1): Fluorescence-based cell-based high throughput dose response assay to identify TAAR1 Agonists.; assay type: functional
# [20] = molecular target: T2, Trace amine-associated receptor 1; test: Fluorescence-based cell-based high throughput dose response assay to identify antagonists of the human trace amine associated receptor 1 (TAAR1).; assay type: functional
# [21] = Counterscreen for […] of the human trace amine associated receptor 1 (TAAR1): Fluorescence-based cell-based high throughput dose response assay to identify nonselective Ga16 agonists.; assay type: functional
# [22] = Counterscreen for antagonists of the human trace amine associated receptor 1 (hTAAR1): Fluorescence-based cell-based high throughput dose response assay to identify nonselective Ga16 antagonists.; assay type: functional
# [23] = cytotoxicity in A549 cells, dose response, cytotoxicity control, cell-based, CellTiter-Glo luminescence, cherry-pick (AID 743484); assay type: functional
# [24] = molecular target: Fructose-bisphosphate aldolase (Mycobacterium tuberculosis, UniProt P9WQA3); test: Fluorescence-based biochemical high throughput dose response assay for inhibitors of the fructose-bisphosphate aldolase (FBA) of M. tuberculosis.; assay type: functional
# Fructose-bisphosphate aldolase, sequence (P9WQA3 whole entry): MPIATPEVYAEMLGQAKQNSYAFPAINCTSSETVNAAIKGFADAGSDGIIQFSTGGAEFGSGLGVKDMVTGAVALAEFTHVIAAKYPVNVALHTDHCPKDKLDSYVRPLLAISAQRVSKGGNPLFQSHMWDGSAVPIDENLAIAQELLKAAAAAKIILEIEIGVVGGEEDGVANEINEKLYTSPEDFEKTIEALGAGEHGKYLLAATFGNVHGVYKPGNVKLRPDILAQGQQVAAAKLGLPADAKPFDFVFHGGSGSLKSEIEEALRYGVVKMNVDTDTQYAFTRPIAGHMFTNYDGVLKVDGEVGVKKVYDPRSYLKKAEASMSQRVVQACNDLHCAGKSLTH
# HeLa = test: HeLa cell cytotoxicity, dose response, cytotoxicity control, ATP luminescence, cherry-pick samples (AID 687004); assay type: functional, cell-based; settings: Homo sapiens
# [25] = HEK293 Cytotoxicity Assay Measured in Cell-Based System Using Plate Reader - 7071-01_Inhibitor_Dose_CherryPick_Activity_Set2.; assay type: functional
# HEK293 = test: HEK293T cell cytotoxicity, dose response, cytotoxicity control, ATP luminescence, cherry-pick samples (AID 687005); assay type: functional, cell-based; settings: Homo sapiens;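 further: cells exposed to compound for 48 hours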
# A549 = test: A549 cell toxicity, dose response, cytotoxicity control, plate reader, cherry-pick samples (AID 687028); assay type: functional, cell-based; settings: Homo sapiens
# [26] = HeLa cell cytotoxicity, dose response, cytotoxicity control, 24 h, plate reader, dry powder (AID 686928); assay type: functional, cell-based
# [27] = CTGF mRNA reduction under YAP1 overexpression, dose response, mechanism study for YAP1 pathway inhibitor project, DLD1 cells, RT-qPCR, cherry-pick (AID 1053127); assay type: functional, cell-based; settings: DLD-1
# [28] = inhibitors of fibronectin matrix deposition, dose response, AH1F cells, Alexa488-FN fluorescence, cherry-picks (AID 1035475); assay type: functional, cell-based
# [29] = HepG2 cell cytotoxicity, dose response, cytotoxicity control, cherry-picks, set 5 (AID 1053118); assay type: functional, cell-based
# [30] = HEK293 cell cytotoxicity, dose response, cytotoxicity control, plate reader, cherry-picked samples (AID 743446); assay type: functional, cell-based
# [31] = MC4R antagonists, dose response, counter-screen for LGR2 antagonist project, cell-based, plate reader, cherry pick (AID 743444); assay type: functional;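 further: transfected HEK 293 cells stimulated with alpha-MSH peptide; potency of inhibitors of the alpha-MSH evoked signal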
# [32] = HEK293 cell cytotoxicity, dose response, cytotoxicity control, cherry-picks, set 5 (AID 1053117); assay type: functional, cell-based
# [33] = LGR2 antagonists, dose response, cell-based, HEK293, CRE-luciferase reporter, cherry pick, set 2 (AID 743343); assay type: functional;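 further: transfected cells were stimulated with diluted bursicon conditioned medium after compound addition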
# [34] = A549 cell cytotoxicity, dose response, cytotoxicity control, cherry-picks, 26 µM top dose (AID 1053119); assay type: functional, cell-based
# [35] = A549 cell cytotoxicity, dose response, cytotoxicity control, plate reader, cherry-pick, antagonist series (AID 743412); assay type: functional, cell-based
smiles,measurement,setting,value
Cc1cc(NC(=O)CSc2nc3c(sc4ccccc43)c(=O)n2CCCN2CCOCC2)[nH]n1,EC50,[1],> 91.2 µM (inactive)
same,EC50,[2],> 91.2 µM (inactive)
same,IC50,[3],0.783 µM (active)
same,IC50,[4],> 80 µM (inactive)
same,EC50,[5],285 µM (active)
same,EC50,[6],100 µM (active)
same,AC50,[7],> 52 µM (inactive)
same,EC50,[8],37.9 µM (active)
COC(=O)c1[nH]c(C)c(C(=O)C2=C(O)C(=O)N(CCN3CCOCC3)C2c2cccs2)c1C (stereo unspecified),Ki,fMet-Leu-Phe receptor,5 µM (active)
COc1ccc(-c2coc3c(CN4CCCCC4C)c(O)ccc3c2=O)cc1 (stereo unspecified),EC50,[9],> 2.58 µM (active)
same,EC50,Kallikrein-7,> 2.58 µM (active)
CCc1ccc(N(C(=O)c2csnn2)C(C(=O)NCc2ccccc2)c2ccco2)cc1 (stereo unspecified),AC50,Cytochrome P450 3A4,1.41 µM (inconclusive)
same,AC50,[10],> 30 µM (inactive)
OC(CNC1CCCc2ccccc21)COc1c(Cl)cccc1Cl (stereo unspecified),IC50,[11],8.84 µM (active)
same,EC50,cells [12],11.7 µM (inactive)
same,EC50,[13],1.57 µM (active)
same,EC50,[14],5.96 µM (active)
same,IC50,cells [15],13.9 µM (inactive)
same,EC50,[16],1.33 µM (active)
Cc1cc(Nc2ccc(Cl)cc2)n(-c2cccc(Cl)c2)n1,IC50,[17],21.3 µM (inactive)
same,IC50,[18],> 69.5 µM (inactive)
Cc1ccc(CSCC(=O)Nc2cc(S(=O)(=O)N3CCOCC3)ccc2OCC(F)(F)F)cc1,EC50,[19],> 29.9 µM (inactive)
same,IC50,[20],1.25 µM (active)
same,EC50,[21],> 29.9 µM (inactive)
same,IC50,[22],> 29.9 µM (inactive)
CC1(Cc2ccccc2C#N)C(=O)Nc2cc(-c3ccccc3Cl)ccc21 (stereo unspecified),AC50,[23],> 52 µM (inactive)
COc1cccc(/C=C/c2nc(S(=O)(=O)c3ccccc3)c(N3CCC(C(N)=O)CC3)o2)c1,IC50,[24],0.676 µM (active)
C[C@@H]1CN([C@@H](C)CO)S(=O)(=O)c2ccc(C#Cc3ccccn3)cc2O[C@H]1CN(C)Cc1ccccc1,AC50,HeLa,39.1 µM (active)
same,AC50,[25],7.04 µM (active)
same,AC50,HEK293,7.04 µM (active)
C[C@H](CO)N1C[C@H](C)[C@H](CN(C)C(=O)Nc2ccc(C(F)(F)F)cc2)OCCCC[C@H](C)Oc2ccc(NS(=O)(=O)c3ccc(F)cc3)cc2C1=O,AC50,A549,33.6 µM (active)
Cc1ccc(-n2cnc(=O)c3ccccc32)cc1Cl,AC50,[26],> 160 µM (inactive)
COc1ccccc1C(=O)Nc1ccc2c(c1)C(=O)N(C)C[C@H](OC)[C@@H](C)CN(C(C)=O)[C@@H](C)CO2,AC50,[27],8.95 µM (active)
C[C@@H]1CN([C@@H](C)CO)C(=O)c2cccc(NC(=O)Nc3ccc(C(F)(F)F)cc3)c2O[C@@H]1CN(C)C(=O)Nc1cccc2ccccc12,AC50,[28],12.9 µM (active)
same,AC50,[29],10.2 µM (active)
same,AC50,[30],> 52 µM (inactive)
same,AC50,[31],22.8 µM (active)
same,AC50,[32],12.7 µM (active)
same,AC50,[33],25 µM (active)
same,AC50,[34],12.8 µM (active)
same,AC50,[35],27.8 µM (active)
